Results reported in patent publication EP4796536A1, “CRYSTAL FORMS OF COMPOUND HAVING FUSED FIVE- AND SIX-MEMBERED RINGS, PREPARATION METHOD THEREFOR, AND USE THEREOF” (Hangzhou Polymed Biopharmaceuticals, Inc., priority 2023, dated 2025).
In brackets after ≈: the same amount, converted by molar mass. Like-named read-outs stand apart in the source and are kept apart here.

Key:
[1] = Solubility of crystal forms in buffers, biorelevant media and water (HPLC, XRPD of residual solid); assay type: physicochemical; conditions: for pH (24 h): 5 mg/mL suspension stirred at 37°C, pH of the solution at 24 h; for Solubility at 37°C (mg/mL) 2 h: 120 min; for Solubility at 37°C (mg/mL) 2 h / Solubility at 37°C (mg/mL) 24 h / solubility at 2 h / solubility at 24 h: 37°C; for solubility at 2 h: read-out: Solubility at 37°C (mg/mL) 2 h; for solubility at 24 h: read-out: Solubility at 37°C (mg/mL) 24 h
Protocol: The solubility of the two crystal forms at 2 hours and 24 hours and the pH of the solution at 24 hours were tested. The solid was filtered, and the resulting solid was tested for XRPD.

[2] = Physicochemical stability of crystal forms (HPLC purity, XRPD)
[3] = Mechanical stability: dry grinding, wet grinding, tableting (XRPD); assay type: physicochemical
Protocol: Dry grinding: approximately 10 mg of the starting sample was ground for 3 minutes in a mortar, and then subjected to XRPD testing.
Wet grinding: approximately 10 mg of the starting sample was ground with 1 to 2 drops of solvent for 3 minutes in a mortar, and then subjected to XRPD testing.
Tableting experiment: approximately 10 mg of the starting sample was compressed at 20 MPa for 3 minutes, and then subjected to XRPD testing.

[4] = Hygroscopicity by dynamic vapor sorption (DVS); assay type: physicochemical
Protocol: Samples are analyzed for hygroscopicity using Intrinsic DVS ([…], UK). Approximately 10 to 30 mg of sample is used for testing. The testing chamber is controlled at a temperature of 25 ± 1°C with the specific testing parameters shown below: […]

[5] = Dry grinding, 3 minutes in a mortar, no solvent
[6] = Tableting, 20 MPa for 3 minutes, solvent EA
[7] = Wet grinding, solvent EtOH, 3 minutes in a mortar
[8] = Wet grinding, solvent Water, 3 minutes in a mortar

For COc1cc2nn(C3CC4(CCN(C(=O)C5CCN(c6ccc7c(c6)C(=O)N(C6CCC(=O)NC6=O)C7=O)CC5)CC4)C3)cc2cc1NC(=O)c1cccc(C(F)(F)F)n1 (single isomer, unassigned) [crystal form I], the “pH (24 h)” value ([1]; FaSSIF) was 6.501, the “Solubility at 37°C (mg/mL) 2 h” value ([1]; FaSSIF) was 0.00141 mg/mL (≈ 1.71 µM) and the solubility ([1]; FeSSIF, stirring at 37°C for 24 hours, 1440 min) was “approximately 0.01 mg/mL”. The “pH (24 h)” value ([1]; FeSSIF) was 5.085, the “Solubility at 37°C (mg/mL) 24 h” value ([1]; FeSSIF, 1440 min) was 0.01099 mg/mL (≈ 13.3 µM) and the “pH (24 h)” value ([1]; SGF) was 1.266. The “pH (24 h)” value ([1]; Water) was 6.749, the “Solubility at 37°C (mg/mL) 2 h” value ([1]; Water) was 0.00089 mg/mL (≈ 1.08 µM) and the “Solubility at 37°C (mg/mL) 24 h” value ([1]; Water, 1440 min) was 0.00025 mg/mL (≈ 0.302 µM). The Crystal form ([1]; XRPD of residual solid after stirring in FaSSIF at 37°C for 24 hours) was “Crystal form I”, the Crystal form ([1]; XRPD of residual solid after stirring in FeSSIF at 37°C for 24 hours) was “Crystal form I” and the Crystal form ([1]; XRPD of residual solid after stirring in SGF at 37°C for 24 hours) was “Crystal form I”. For the same compound, the Crystal form ([1]; XRPD of residual solid after stirring in Water at 37°C for 24 hours) was “Crystal form I”, the Crystal form ([1]; XRPD of residual solid after stirring in pH 1.2 buffer at 37°C for 24 hours) was “Crystal form I” and the Crystal form ([1]; XRPD of residual solid after stirring in pH 3.0 buffer at 37°C for 24 hours) was “Crystal form I”. For the same compound, the Crystal form ([1]; XRPD of residual solid after stirring in pH 4.5 buffer at 37°C for 24 hours) was “Crystal form I”, the Crystal form ([1]; XRPD of residual solid after stirring in pH 6.8 buffer at 37°C for 24 hours) was “Crystal form I” and the Crystal form ([1]; XRPD of residual solid after stirring in pH 7.4 buffer at 37°C for 24 hours) was “Crystal form I”. It also gave a solubility at 2 h ([1]; buffer, pH 1.2, pH 1.2 buffer) of 0.00084 mg/mL (≈ 1.02 µM), a solubility at 24 h ([1]; buffer, pH 1.2, pH 1.2 buffer) of 0.00081 mg/mL (≈ 0.98 µM) and a solubility at 2 h ([1]; buffer, pH 3, pH 3.0 buffer) of 0.00048 mg/mL (≈ 0.581 µM). For the same compound, the solubility at 24 h ([1]; buffer, pH 3, pH 3.0 buffer) was 0.00077 mg/mL (≈ 0.931 µM), the solubility at 2 h ([1]; buffer, pH 4.5, pH 4.5 buffer) was 0.00019 mg/mL (≈ 0.23 µM) and the solubility at 24 h ([1]; buffer, pH 4.5, pH 4.5 buffer) was 0.00087 mg/mL (≈ 1.05 µM). For the same compound, the solubility at 2 h ([1]; buffer, pH 6.8, pH 6.8 buffer) was 0.00046 mg/mL (≈ 0.556 µM), the solubility at 24 h ([1]; buffer, pH 6.8, pH 6.8 buffer) was 0.00084 mg/mL (≈ 1.02 µM) and the solubility at 2 h ([1]; buffer, pH 7.4, pH 7.4 buffer) was 0.00101 mg/mL (≈ 1.22 µM). It also gave a solubility at 24 h ([1]; buffer, pH 7.4, pH 7.4 buffer) of 0.00079 mg/mL (≈ 0.955 µM), a solubility at 24 h ([1]; fassif) of 0.00148 mg/mL (≈ 1.79 µM) and a solubility at 2 h ([1]; fessif) of 0.004 mg/mL (≈ 4.84 µM). The “pH (24 h)” value ([1]; pH 1.2 buffer) was 1.234, the “pH (24 h)” value ([1]; pH 3.0 buffer) was 3.145 and the “pH (24 h)” value ([1]; pH 4.5 buffer) was 4.583. The “pH (24 h)” value ([1]; pH 6.8 buffer) was 6.805, the “pH (24 h)” value ([1]; pH 7.4 buffer) was 7.439 and the solubility at 2 h ([1]; sgf) was 0.00158 mg/mL (≈ 1.91 µM). The solubility at 24 h ([1]; sgf) was 0.00376 mg/mL (≈ 4.55 µM), the “Purity (%)” value ([2]; 25°C/60% RH, open, 1 week) was 98.96% and the XRPD ([2]; 25°C/60% RH, open, 1 week) was “Unchanged”. The “Purity (%)” value ([2]; 40°C/75% RH, open, 1 week) was 98.96%, the XRPD ([2]; 40°C/75% RH, open, 1 week) was “Unchanged” and the “Purity (%)” value ([2]; 60°C, closed, 1 week) was 98.80%. The XRPD ([2]; 60°C, closed, 1 week) was “Unchanged”, the “Purity (%)” value ([2]; Initial) was 98.97% and the “Purity (%)” value ([2]; Light, closed, 10 days) was 98.96%. The XRPD ([2]; Light, closed, 10 days) was “Unchanged”, the “Purity (%)” value ([2]; Light, control, 10 days) was 98.97% and the XRPD ([2]; Light, control, 10 days) was “Unchanged”. For the same compound, the “change in the crystal form after stability testing” value ([2]; all stability conditions) was “no change in the crystal form”, the degradation ([2]; closed stability chamber at 60°C for 1 week) was 0.17% and the degradation ([2]; other stability conditions (25°C/60% RH, 40°C/75% RH 1 week; light 10 days)) was “no significant degradation”. For the same compound, the Solid color [3, 5] was “Yellow, essentially no change”, the XRPD results [3, 5] was “Crystal form I (low degree of crystallinity)” and the Solid color [3, 6] was “Yellow, essentially no change”. For the same compound, the XRPD results [3, 6] was “Crystal form I”, the Solid color [3, 7] was “Yellow, essentially no change” and the XRPD results [3, 7] was “Crystal form I”. For the same compound, the Solid color [3, 8] was “Yellow, essentially no change”, the XRPD results [3, 8] was “Crystal form I” and the “degree of crystallinity of the solid” value ([3]; after dry grinding) was “reduction in the degree of crystallinity”. For the same compound, the “crystal form of the solid (XRPD)” value ([3]; after dry grinding, wet grinding, and tableting) was “no change in the crystal form”, the Solid color ([3]; after grinding and tableting experiments, versus starting sample) was “essentially no change in the solid color” and the “degree of crystallinity of the solid” value ([3]; after wet grinding and tableting) was “almost no change in the degree of crystallinity”. For the same compound, the hygroscopic weight gain ([4]; 80% RH, 25°C) was 0.3629%, the hygroscopicity evaluation ([4]; DVS, based on weight gain at 80% RH) was “slightly hygroscopic” and the “crystal form after DVS testing” value ([4]; after DVS testing) was “no change in the crystal form”.
